Reference: US9040259B2, “Production of polyketides and other natural products” (Buck Institute for Research on Aging, priority 2002, dated 2015)
Where two headings read alike, the source gives them in different places.

Assays:
[1] = compared to rapamycin; Khaw et al., 1998; cited from earlier work
[2] = compared to rapamycin; Wong et al., 1998; cited from earlier work
[3] = tested on: splenic lymphocytes isolated from C57BL/6 mice; test: Mixed lymphocyte reaction (MLR), [3H] thymidine incorporation; assay type: cell-based; details: IC50 quoted as a ratio of the rapamycin IC50; 72 h, 37° C.
Protocol: Originally developed to assess tissue compatibility prior to allografts, MLR offers an established model for immune reaction in vitro (SOULILLOU, J. P., et al. (1975); T. Meo. “Immunological Methods”, L. Lefkovits and B. Pernis, Eds., Academic Press, N.Y. pp. 227-239 (1979). MLR was performed by mixing splenic lymphocytes isolated from C57BL/6 mice (5×10^5 cells) with inhibited splenic lymphocytes from CBA mice (2.5×10^5 cells). The inhibited CBA lymphocytes induced a proliferative response in C57BU6 lymphocytes and this was determined by [^3H] thymidine incorporation into DNA as a measure of proliferation of splenic lymphocytes isolated from C57BU6 mice. The anti-proliferative effect was assayed for in the presence of log scale dilutions of reference compounds, test compounds and media controls over a 72 h period at 37° C. The concentration of each test compound and reference compound, which inhibited lymphocyte proliferation by 50% (IC50), compared to control proliferation, was calculated for each cell line and quoted as a ratio of the concentration of rapamycin required to inhibit lymphocyte proliferation by 50% (rIC50), see Table XIV.

[4] = tested on: Candida glabrata DSM 11226; test: Anti-fungal assay, NCCLS M27-A microtitre broth dilution; assay type: cell-based; details: MIC as a ratio of the rapamycin MIC; 37° C., 24 h
Protocol: (§1) The comparative anti-fungal activities of reference and test compounds were determined against pathogenic fungi Candida albicans DSM 5816, Candida albicans DSM 1386 and Candida glabrata DSM 11226. This was achieved using a microtitre plate adaption of the NCCLS Reference Method for Broth Dilution Antifungal Susceptibility Testing for Yeasts: Approved Standard (M27-A, vol. 17 No. 9. (1997)). Yeast strains were inoculated (10^4 cfu/ml) to RPMI 1640 media containing […] MOPS, pH 7. Growth was determined in the presence of log scale dilutions of reference compounds, test compounds and media controls after incubation with shaking at 37° C., 24 h. Minimum inhibitory concentration (MIC) and minimum fungicidal activity (MFC) were determined for test compounds and expressed as a ratio of the rapamycin minimum inhibitory concentration (rMIC respectively), see Table XV.

[5] = tested on: Candida albicans DSM 1386; test: as above; assay type: cell-based; details: MIC as a ratio of the rapamycin MIC; 37° C., 24 h
Protocol: as §1

[6] = tested on: Candida albicans DSM 5816; test: as above; assay type: cell-based; details: MIC as a ratio of the rapamycin MIC; 37° C., 24 h
Protocol: as §1

HT29 (colon) = test: MTT growth inhibition assay, HT29 (colon) tumour cell line; assay type: cell-based, human; details: for IC50: concentration giving 50% of maximum inhibition, read-out: IC50 (row head: HT29 rIC50)
Protocol: (§2) Growth inhibition of adherent human tumour cell lines of solid malignancies HT29 (colon) and MCF-7 (breast) was tested in vitro using an MTT (3-(4,5-dimethylthiazol-2-yl)-2,5-diphenyltetrazolium bromide) assay using micro-titre plates (Sieuwerts, A. M., et al., 1995). All cell lines were obtained from either the ATCC (American Type Culture Collection) or ECACC (European Collection of Cell Cultures). All cell lines were grown from frozen stocks and passaged at least once prior to use in RPMI 1640. Cells were harvested from sub-confluent cultures using minimal trypsinization. Cells were diluted to the appropriate density for each cell line (dependent on cell doubling time) in RPMI 1640, and seeded in 60 wells of a 96 well plate in a volume of 100 μl per well (i.e. outside wells of the plate were not used). Plates were incubated at 37° C. overnight. Following this incubation, log scale dilutions of reference and test substances were added in 100 μl per well, 6 replicates were used to test all test compounds, reference compounds and medium controls. Plates were incubated for a further 72 h prior to analysis. MTT (5 mg/ml) was added to each well and plates were re-incubated for 3-4 h. Unreacted MTT was removed from the wells and formazan crystals formed from the MTT were dissolved in DMSO and characteristic absorbance read at 570 nm.

MCF-7 (breast) = test: MTT growth inhibition assay, MCF-7 (breast) tumour cell line; assay type: cell-based, human; details: MCF-7 cell line, 72 h; for IC50: concentration giving 50% of maximum inhibition, read-out: IC50 (row head: MCF-7 rIC50)
Protocol: as §2

[7] = tested on: mixed lymphocyte reaction; details: Nishida et al., 1995; cited from earlier work
FKBP12 = FKBP12 (Homo sapiens, UniProt P62942); details: compared to rapamycin; Box et al., 1995; cited from earlier work
murine splenic B cells = details: compared to rapamycin; Box et al., 1995; cited from earlier work
murine splenic T cells = details: compared to rapamycin; Box et al., 1995; cited from earlier work
[8] = compared to rapamycin; Box et al., 1995; cited from earlier work

FKBP12, sequence (P62942 whole entry): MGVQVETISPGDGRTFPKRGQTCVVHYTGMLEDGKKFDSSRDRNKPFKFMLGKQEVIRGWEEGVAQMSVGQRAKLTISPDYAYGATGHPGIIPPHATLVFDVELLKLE

Compound	MLR rIC50 [3]	C. glabrata DSM 11226 rMIC [4]	C. albicans DSM 1386 rMIC [5]	C. albicans DSM 5816 rMIC [6]	Im (maximum percentage of inhibition observed) (HT29 (colon); 72 h)	IC50 (HT29 (colon); 72 h)	Im (maximum percentage of inhibition observed) (MCF-7 (breast))	IC50 (MCF-7 (breast))	also measured
4-hydroxyprolyl-26-desmethoxy-rapamycin	–	–	–	–	–	–	–	–	inhibitory activity in proliferation assays [1]: significantly less than that of rapamycin
27-desmethoxy-rapamycin [Compound 22]	–	–	–	–	–	–	–	–	antifungal activities [2]: lower than that of rapamycin
CC1=CC(C)C(=O)CC(C(C)CC2CCC(O)C(O)C2)OC(=O)C2CCCCN2C(=O)CC2(O)OC(CCC2C)CC(O)C(C)=CC=CC=CC(C)CC(C)C(=O)CC1O (stereo not shown) [Compound 1, 9-deoxo-16-O-desmethyl-27-desmethoxy-39-O-desmethyl-rapamycin]	9.4	5	5	1	38%	50.1 nM	38%	3.2 nM	–
CC1=CC(C)C(=O)CC(C(C)CC2CCC(O)C(O)C2)OC(=O)C2CCCCN2C(=O)C(=O)C2(O)OC(CCC2C)CC(O)C(C)=CC=CC=CC(C)CC(C)C(=O)CC1O (stereo not shown) [Compound 3, 16-O-desmethyl-27-desmethoxy-39-O-desmethyl-rapamycin]	7.9	1	1	1	37%	63.1 nM	38%	20 nM	–
CO[C@@H]1C[C@H](C[C@@H](C)[C@@H]2CC(=O)[C@H](C)/C=C(\C)[C@@H](O)CC(=O)[C@H](C)C[C@H](C)/C=C/C=C/C=C(\C)[C@@H](O)C[C@@H]3CC[C@@H](C)[C@](O)(CC(=O)N4CCCC[C@H]4C(=O)O2)O3)CC[C@H]1O [Compound 6, 9-deoxo-16-O-desmethyl-27-desmethoxy-rapamycin]	8.8	5	5	1	38%	25 nM	48%	126 nM	–
CO[C@H]1C[C@@H]2CC[C@@H](C)[C@](O)(CC(=O)N3CCCC[C@H]3C(=O)O[C@H]([C@H](C)C[C@@H]3CC[C@@H](O)[C@H](O)C3)CC(=O)[C@H](C)/C=C(\C)[C@@H](O)[C@@H](O)C(=O)[C@H](C)C[C@H](C)/C=C/C=C/C=C/1C)O2 [Compound 8, 9-deoxo-27-O-desmethyl-39-O-desmethyl-rapamycin]	4.1	1	1	1	30%	63 nM	38%	20 nM	–
CO[C@@H]1C[C@H](C[C@@H](C)[C@@H]2CC(=O)[C@H](C)/C=C(\C)[C@@H](O)[C@@H](O)C(=O)[C@H](C)C[C@H](C)/C=C/C=C/C=C(\C)[C@@H](O)C[C@@H]3CC[C@@H](C)[C@](O)(CC(=O)N4CCCC[C@H]4C(=O)O2)O3)CC[C@H]1O [Compound 9, 9-deoxo-16-O-desmethyl-27-O-desmethyl-rapamycin]	6.5	1	1	1	35%	12.6 nM	40%	17.8 nM	–
COC1CC2CCC(C)C(O)(CC(=O)N3CCCCC3C(=O)OC(C(C)CC3CCC(O)C(OC)C3)CC(=O)C(C)C=C(C)C(O)CC(=O)C(C)CC(C)C=CC=CC=C1C)O2 (stereo not shown) [Compound 16, 9-deoxo-27-desmethoxy-rapamycin]	>14.7	5	5	1	25%	15.8 nM	32%	2 nM	–
CO[C@H]1C[C@@H]2CC[C@@H](C)[C@](O)(CC(=O)N3CCCC[C@H]3C(=O)O[C@H]([C@H](C)C[C@@H]3CC[C@@H](O)[C@H](OC)C3)CC(=O)[C@H](C)/C=C(\C)[C@@H](O)[C@@H](OC)C(=O)[C@H](C)C[C@H](C)/C=C/C=C/C=C/1C)O2 [Compound 19, 9-deoxo-rapamycin]	–	–	–	–	–	–	–	–	mixed lymphocyte reaction (MLR) inhibitory activity [7]: more significant decrease in activity
CO[C@H]1C[C@@H]2CC[C@@H](C)[C@@](O)(O2)C(=O)C(=O)N2CCCC[C@H]2C(=O)O[C@H]([C@H](C)C[C@@H]2CC[C@@H](O)[C@H](OC)C2)CC(=O)[C@H](C)/C=C(\C)[C@@H](O)[C@@H](O)C(=O)[C@H](C)C[C@H](C)/C=C/C=C/C=C/1C [Compound 21, 27-O-desmethyl-rapamycin]	–	–	–	–	–	–	–	–	antifungal activities [2]: lower than that of rapamycin; inhibition of FKBP12 PPlase activity (FKBP12): seemed to be increased; inhibition of LPS-stimulated proliferation of murine splenic B cells (murine splenic B cells): decreased when compared to rapamycin; inhibition of ConA-stimulated proliferation of murine splenic T cells (murine splenic T cells): decreased when compared to rapamycin; antifungal activity [8]: lower than that of rapamycin
COC1CC2CCC(C)C(O)(O2)C(=O)C(=O)N2CCCC2C(=O)OC(C(C)CC2CCC(O)C(OC)C2)CC(=O)C(C)/C=C(\C)C(O)C(OC)C(=O)C(C)CC(C)/C=C/C=C/C=C/1C (stereo not shown) [prolylrapamycin, reference compound]	–	–	–	–	–	–	–	–	antifungal activities [2]: lower than that of rapamycin
CO[C@H]1C[C@@H]2CC[C@@H](C)[C@@](O)(O2)C(=O)C(=O)N2CCCC[C@H]2C(=O)O[C@H]([C@H](C)C[C@@H]2CC[C@@H](O)[C@H](OC)C2)CC(=O)[C@H](C)/C=C(\C)[C@@H](O)[C@@H](OC)C(=O)[C@H](C)C[C@H](C)/C=C/C=C/C=C/1C [rapamycin, reference compound]	–	–	–	–	40%	–	56%	–	IC50 (HT29 (colon); Homo sapiens, HT-29, 72 h): 200 nM; IC50 (MCF-7 (breast); Homo sapiens, MCF7): 0.03 nM
